This is an account of results in ChEMBL document CHEMBL4765478, “Lithocholic Acid Derivatives as Potent Vitamin D Receptor Agonists” (J Med Chem, 2021).

As a reminder, the EC50 is the concentration giving half of the maximal effect. The IC50 is the point on the concentration scale where inhibition reaches its midpoint.

Activity calls are given as the source filed them. The rule behind the calls is not given here.

For assay [1], the target named is T1, Vitamin D3 receptor (Homo sapiens) (UniProt P11473).
T1 sequence (whole entry): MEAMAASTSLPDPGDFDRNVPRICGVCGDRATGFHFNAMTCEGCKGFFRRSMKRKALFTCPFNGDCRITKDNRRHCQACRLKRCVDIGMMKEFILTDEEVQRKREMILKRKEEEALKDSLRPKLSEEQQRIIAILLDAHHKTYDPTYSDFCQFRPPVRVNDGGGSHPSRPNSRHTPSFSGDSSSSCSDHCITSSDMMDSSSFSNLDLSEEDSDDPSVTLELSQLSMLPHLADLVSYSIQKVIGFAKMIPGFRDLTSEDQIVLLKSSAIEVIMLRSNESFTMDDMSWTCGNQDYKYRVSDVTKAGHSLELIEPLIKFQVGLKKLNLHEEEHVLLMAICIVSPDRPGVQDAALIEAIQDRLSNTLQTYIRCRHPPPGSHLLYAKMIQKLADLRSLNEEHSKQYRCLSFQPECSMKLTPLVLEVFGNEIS
As to the kind of experiment: Agonist activity at VDR in human HL-60 cells assessed as induction of cell differentiation of promyelocytes to monocytes at 1 uM after 4 days by NBT reduction assay. The following applies: filed as agonist, time 4.0 day. It counts as cell-based.

The target of assay [2] is T1, Vitamin D3 receptor (Homo sapiens). As to the kind of experiment: Potency index, ratio of EC50 for lithocholic acid to EC50 for test compound for agonist activity at VDR in human HL60 cells assessed as induction of cell differentiation of promyelocytes to monocytes after 4 days by NBT reduction assay. It counts as cell-based. The following applies: HL-60, time 4.0 day.

Assay [3] shares this target. As to the kind of experiment: Potency index, ratio of EC50 for 1-alpha,25-(OH)2D3 to EC50 for test compound for agonist activity at VDR in human HL60 cells assessed as induction of cell differentiation of promyelocytes to monocytes after 4 days by NBT reduction assay. It counts as cell-based. The settings on record: HL-60, time 4.0 day.
Assay [4] has as its target T2, Vitamin D3 receptor (Homo sapiens, UniProt P11473).
T2 sequence (P11473 whole entry): T1 sequence (whole entry)
As to the kind of experiment: Agonist activity at human VDR expressed in African green monkey COS7 cells expressing mouse osteopontin VDRE assessed as induction of receptor transactivation incubated for 16 hrs by luciferase reporter gene assay. It counts as cell-based. Background: In a reporter assay the amount or activity of a reporter protein is the signal.

Assay [5] has as its target T3, Vitamin D3 receptor (Bos taurus, UniProt Q28037).
T3 sequence (Q28037 whole entry): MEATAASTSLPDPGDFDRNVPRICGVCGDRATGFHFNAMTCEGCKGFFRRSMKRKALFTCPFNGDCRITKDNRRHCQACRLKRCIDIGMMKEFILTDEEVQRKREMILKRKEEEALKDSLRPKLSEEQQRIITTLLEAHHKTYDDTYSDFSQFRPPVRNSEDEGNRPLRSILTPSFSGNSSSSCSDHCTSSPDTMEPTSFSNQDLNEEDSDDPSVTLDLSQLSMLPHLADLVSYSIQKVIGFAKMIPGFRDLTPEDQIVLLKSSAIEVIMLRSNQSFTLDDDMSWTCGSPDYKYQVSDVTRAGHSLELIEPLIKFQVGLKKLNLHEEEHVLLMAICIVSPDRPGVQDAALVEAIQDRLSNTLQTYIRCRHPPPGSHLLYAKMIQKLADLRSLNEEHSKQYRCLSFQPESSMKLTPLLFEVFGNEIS
As to the kind of experiment: (§1) Displacement of [3H]-1-alpha,25-(OH)2D3 from bovine thymus VDR incubated for 18 hrs by competitive binding assay. On the technique in general: Displacement assays read how much labelled ligand stays bound in the presence of the test substance.

The target in assay [6] is T4, Vitamin D3 receptor (Bos taurus) (UniProt Q28037).
T4 sequence (whole entry): T3 sequence (Q28037 whole entry)
Described as §1. The following applies: filed as agonist.

The target in assay [7] is T2, Vitamin D3 receptor. As to the kind of experiment: Agonist activity at human VDR expressed in HEK293 cells expressing mouse osteopontin VDRE assessed as induction of receptor transactivation incubated for 16 hrs by luciferase reporter gene assay. It counts as cell-based.
The target of assay [8] is T1, Vitamin D3 receptor (Homo sapiens). As to the kind of experiment: Agonist activity at VDR in human HL-60 cells assessed as induction of cell differentiation of promyelocytes to monocytes at 0.1 nM after 4 days by NBT reduction assay. It counts as cell-based. The following applies: filed as agonist, time 4.0 day.

Take `C[C@H](CCC(=O)O)[C@H]1CC[C@H]2[C@@H]3CC[C@@H]4C[C@H](OS(C)(=O)=O)CC[C@]4(C)[C@H]3CC[C@]12C`: in assay [1], the result was Active.

For `CC(=O)O[C@@H]1CC[C@@]2(C)[C@H](CC[C@@H]3[C@@H]2CC[C@]2(C)[C@@H]([C@H](C)CCC(=O)O)CC[C@@H]32)C1`, in assay [1], the result was Active.

On to `C[C@H](CCC(=O)O)[C@H]1CC[C@H]2[C@@H]3CC[C@@H]4C[C@H](CC(C)(C)O)CC[C@]4(C)[C@H]3CC[C@]12C`, for which the Ratio EC50 was less than 10000 in assay [2] and 3 in assay [3]. Also, the EC50 on Vitamin D3 receptor [4] was 1000 pM; on Vitamin D3 receptor [7] it was 150 pM. At Vitamin D3 receptor [5], this compound came in with an IC50 of 2090 pM. In addition, the Activity result in assay [6] was “Dose-dependent effect”. Moreover, the result in assay [8] was Active.

For `C[C@H](CCC(=O)O)[C@H]1CC[C@H]2[C@@H]3CC[C@@H]4C[C@H](C(C)(C)O)CC[C@]4(C)[C@H]3CC[C@]12C`, in assay [1], the outcome was Active.

`C[C@H](CCC(=O)O)[C@H]1CC[C@H]2[C@@H]3CC[C@@H]4C[C@@H](CC(C)(C)O)CC[C@]4(C)[C@H]3CC[C@]12C`: the 50% effective concentration (EC50) amounted to 240 pM on Vitamin D3 receptor [4] and 14 pM at Vitamin D3 receptor [7]. The compound also displayed a concentration for half-maximal inhibition (IC50) on Vitamin D3 receptor [5] of 67300 pM. Further, the Activity result in assay [6] was “Dose-dependent effect”.
